Reference: the supplement of paper PMC10307832

What was measured:
Experiment in all cases: relative viability (nuclei count vs DMSO), 5 days (fraction); higher = more cells survive
[1] = compound: CC1=CC(=NN1)NC2=CC(=NC(=N2)/C=C/C3=CC=CC=C3)N4CCN(CC4)C + Cc1nc(NC(=O)N2CCC[C@H]2C(N)=O)sc1-c1ccnc(C(C)(C)C(F)(F)F)c1 [Alpelisib] (partner 2 µM)
Outline: (§1)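 Relative viability equals treated-well nuclei counts divided by vehicle-well nuclei counts. Counts came from 4× images of lung cancer cell lines grown in 1536-well plates for 5 days after pin-tool dosing on the day after seeding. Dosing used one drug alone or a fixed anchor-drug dose plus five library-drug doses (not always all listed) in √10 steps, and values are medians of duplicate plates.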

Obatoclax + Trametinib = compound: COC1=CC(c2cc3ccccc3[nH]2)=N/C1=C\c1[nH]c(C)cc1C [Obatoclax] + CC(=O)Nc1cccc(-n2c(=O)n(C3CC3)c(=O)c3c(Nc4ccc(I)cc4F)n(C)c(=O)c(C)c32)c1 [Trametinib] (partner 0.02 µM)
Outline: as §1

Obatoclax + Navitoclax = compound: COC1=CC(c2cc3ccccc3[nH]2)=N/C1=C\c1[nH]c(C)cc1C [Obatoclax] + CC1(C)CCC(c2ccc(Cl)cc2)=C(CN2CCN(c3ccc(C(=O)NS(=O)(=O)c4ccc(N[C@H](CCN5CCOCC5)CSc5ccccc5)c(S(=O)(=O)C(F)(F)F)c4)cc3)CC2)C1 [Navitoclax] (partner 0.5 µM)
Outline: as §1

Obatoclax + Alpelisib = compound: COC1=CC(c2cc3ccccc3[nH]2)=N/C1=C\c1[nH]c(C)cc1C [Obatoclax] + Cc1nc(NC(=O)N2CCC[C@H]2C(N)=O)sc1-c1ccnc(C(C)(C)C(F)(F)F)c1 [Alpelisib] (partner 2 µM)
Outline: as §1

Cell Line: NCI-H1355
- relative viability ([1]; first compound 0.08 µM): 0.863
- relative viability ([1]; first compound 0.253 µM): 0.859
- relative viability ([1]; first compound 0.8 µM): 0.683
- relative viability ([1]; first compound 2.53 µM): 0.605
- relative viability ([1]; first compound 8 µM): 0.192
- relative viability (Obatoclax + Trametinib; first compound 0.01 µM): 0.403
- relative viability (Obatoclax + Trametinib; first compound 0.03162 µM): 0.462
- relative viability (Obatoclax + Trametinib; first compound 0.1 µM): 0.439
- relative viability (Obatoclax + Trametinib; first compound 0.3162 µM): 0.35
- relative viability (Obatoclax + Trametinib; first compound 1 µM): 0.454
- relative viability (Obatoclax + Navitoclax; first compound 0.01 µM): 0.883
- relative viability (Obatoclax + Navitoclax; first compound 0.03162 µM): 0.976
- relative viability (Obatoclax + Navitoclax; first compound 0.1 µM): 0.953
- relative viability (Obatoclax + Navitoclax; first compound 0.3162 µM): 0.885
- relative viability (Obatoclax + Navitoclax; first compound 1 µM): 0.91
- relative viability (Obatoclax + Alpelisib; first compound 0.01 µM): 0.866
- relative viability (Obatoclax + Alpelisib; first compound 0.03162 µM): 0.905
- relative viability (Obatoclax + Alpelisib; first compound 0.1 µM): 0.795
- relative viability (Obatoclax + Alpelisib; first compound 0.3162 µM): 0.681
- relative viability (Obatoclax + Alpelisib; first compound 1 µM): 0.658

Cell Line: COR-L23
- relative viability ([1]; first compound 0.08 µM): 0.751
- relative viability ([1]; first compound 0.253 µM): 0.722
- relative viability ([1]; first compound 0.8 µM): 0.57
- relative viability ([1]; first compound 2.53 µM): 0.178
- relative viability ([1]; first compound 8 µM): 0.0573
- relative viability (Obatoclax + Trametinib; first compound 0.01 µM): 0.541
- relative viability (Obatoclax + Trametinib; first compound 0.03162 µM): 0.607
- relative viability (Obatoclax + Trametinib; first compound 0.1 µM): 0.44
- relative viability (Obatoclax + Trametinib; first compound 0.3162 µM): 0.252
- relative viability (Obatoclax + Trametinib; first compound 1 µM): 0.194
- relative viability (Obatoclax + Navitoclax; first compound 0.01 µM): 1.08
- relative viability (Obatoclax + Navitoclax; first compound 0.03162 µM): 1.06
- relative viability (Obatoclax + Navitoclax; first compound 0.1 µM): 0.883
- relative viability (Obatoclax + Navitoclax; first compound 0.3162 µM): 0.257
- relative viability (Obatoclax + Navitoclax; first compound 1 µM): 0.2
- relative viability (Obatoclax + Alpelisib; first compound 0.01 µM): 0.765
- relative viability (Obatoclax + Alpelisib; first compound 0.03162 µM): 0.808
- relative viability (Obatoclax + Alpelisib; first compound 0.1 µM): 0.675
- relative viability (Obatoclax + Alpelisib; first compound 0.3162 µM): 0.209
- relative viability (Obatoclax + Alpelisib; first compound 1 µM): 0.182

Cell Line: NCI-H2023
- relative viability ([1]; first compound 0.08 µM): 0.482
- relative viability ([1]; first compound 0.253 µM): 0.645
- relative viability ([1]; first compound 0.8 µM): 0.626
- relative viability ([1]; first compound 2.53 µM): 0.417
- relative viability ([1]; first compound 8 µM): 0.0558
- relative viability (Obatoclax + Trametinib; first compound 0.01 µM): 0.59
- relative viability (Obatoclax + Trametinib; first compound 0.03162 µM): 0.575
- relative viability (Obatoclax + Trametinib; first compound 0.1 µM): 0.595
- relative viability (Obatoclax + Trametinib; first compound 0.3162 µM): 0.362
- relative viability (Obatoclax + Trametinib; first compound 1 µM): 0.226
- relative viability (Obatoclax + Navitoclax; first compound 0.01 µM): 0.96
- relative viability (Obatoclax + Navitoclax; first compound 0.03162 µM): 1.02
- relative viability (Obatoclax + Navitoclax; first compound 0.1 µM): 0.911
- relative viability (Obatoclax + Navitoclax; first compound 0.3162 µM): 0.906
- relative viability (Obatoclax + Navitoclax; first compound 1 µM): 0.612
- relative viability (Obatoclax + Alpelisib; first compound 0.01 µM): 0.603
- relative viability (Obatoclax + Alpelisib; first compound 0.03162 µM): 0.667
- relative viability (Obatoclax + Alpelisib; first compound 0.1 µM): 0.578
- relative viability (Obatoclax + Alpelisib; first compound 0.3162 µM): 0.605
- relative viability (Obatoclax + Alpelisib; first compound 1 µM): 0.334

Cell Line: A-427
- relative viability ([1]; first compound 0.08 µM): 1.08
- relative viability ([1]; first compound 0.253 µM): 1.15
- relative viability ([1]; first compound 0.8 µM): 1.07
- relative viability ([1]; first compound 2.53 µM): 0.716
- relative viability ([1]; first compound 8 µM): 0.133
- relative viability (Obatoclax + Trametinib; first compound 0.01 µM): 0.785
- relative viability (Obatoclax + Trametinib; first compound 0.03162 µM): 0.689
- relative viability (Obatoclax + Trametinib; first compound 0.1 µM): 0.849
- relative viability (Obatoclax + Trametinib; first compound 0.3162 µM): 0.729
- relative viability (Obatoclax + Trametinib; first compound 1 µM): 0.621
- relative viability (Obatoclax + Navitoclax; first compound 0.01 µM): 0.864
- relative viability (Obatoclax + Navitoclax; first compound 0.03162 µM): 0.917
- relative viability (Obatoclax + Navitoclax; first compound 0.1 µM): 0.95
- relative viability (Obatoclax + Navitoclax; first compound 0.3162 µM): 0.986
- relative viability (Obatoclax + Navitoclax; first compound 1 µM): 0.959
- relative viability (Obatoclax + Alpelisib; first compound 0.01 µM): 1.14
- relative viability (Obatoclax + Alpelisib; first compound 0.03162 µM): 1.09
- relative viability (Obatoclax + Alpelisib; first compound 0.1 µM): 1.13
- relative viability (Obatoclax + Alpelisib; first compound 0.3162 µM): 1.04
- relative viability (Obatoclax + Alpelisib; first compound 1 µM): 1.01

Cell Line: UMC-11
- relative viability ([1]; first compound 0.08 µM): 0.948
- relative viability ([1]; first compound 0.253 µM): 0.963
- relative viability ([1]; first compound 0.8 µM): 0.404
- relative viability ([1]; first compound 2.53 µM): 0.13
- relative viability ([1]; first compound 8 µM): 0.103
- relative viability (Obatoclax + Trametinib; first compound 0.01 µM): 0.669
- relative viability (Obatoclax + Trametinib; first compound 0.03162 µM): 0.674
- relative viability (Obatoclax + Trametinib; first compound 0.1 µM): 0.466
- relative viability (Obatoclax + Trametinib; first compound 0.3162 µM): 0.643
- relative viability (Obatoclax + Trametinib; first compound 1 µM): 0.393
- relative viability (Obatoclax + Navitoclax; first compound 0.01 µM): 0.315
- relative viability (Obatoclax + Navitoclax; first compound 0.03162 µM): 0.311
- relative viability (Obatoclax + Navitoclax; first compound 0.1 µM): 0.316
- relative viability (Obatoclax + Navitoclax; first compound 0.3162 µM): 0.299
- relative viability (Obatoclax + Navitoclax; first compound 1 µM): 0.111
- relative viability (Obatoclax + Alpelisib; first compound 0.01 µM): 0.954
- relative viability (Obatoclax + Alpelisib; first compound 0.03162 µM): 0.892
- relative viability (Obatoclax + Alpelisib; first compound 0.1 µM): 1.03
- relative viability (Obatoclax + Alpelisib; first compound 0.3162 µM): 0.584
- relative viability (Obatoclax + Alpelisib; first compound 1 µM): 0.442

Cell Line: NCI-H596
- relative viability ([1]; first compound 0.08 µM): 0.5
- relative viability ([1]; first compound 0.253 µM): 0.577
- relative viability ([1]; first compound 0.8 µM): 0.565
- relative viability ([1]; first compound 2.53 µM): 0.367
- relative viability ([1]; first compound 8 µM): 0.121
- relative viability (Obatoclax + Trametinib; first compound 0.01 µM): 0.814
- relative viability (Obatoclax + Trametinib; first compound 0.03162 µM): 0.784
- relative viability (Obatoclax + Trametinib; first compound 0.1 µM): 0.692
- relative viability (Obatoclax + Trametinib; first compound 0.3162 µM): 0.652
- relative viability (Obatoclax + Trametinib; first compound 1 µM): 0.565
- relative viability (Obatoclax + Navitoclax; first compound 0.01 µM): 0.898
- relative viability (Obatoclax + Navitoclax; first compound 0.03162 µM): 0.74
- relative viability (Obatoclax + Navitoclax; first compound 0.1 µM): 0.775
- relative viability (Obatoclax + Navitoclax; first compound 0.3162 µM): 0.519
- relative viability (Obatoclax + Navitoclax; first compound 1 µM): 0.583
- relative viability (Obatoclax + Alpelisib; first compound 0.01 µM): 0.481
- relative viability (Obatoclax + Alpelisib; first compound 0.03162 µM): 0.437
- relative viability (Obatoclax + Alpelisib; first compound 0.1 µM): 0.469
- relative viability (Obatoclax + Alpelisib; first compound 0.3162 µM): 0.402
- relative viability (Obatoclax + Alpelisib; first compound 1 µM): 0.401

Cell Line: LU99A
- relative viability ([1]; first compound 0.08 µM): 0.459
- relative viability ([1]; first compound 0.253 µM): 0.514
- relative viability ([1]; first compound 0.8 µM): 0.324
- relative viability ([1]; first compound 2.53 µM): 0.157
- relative viability ([1]; first compound 8 µM): 0.129
- relative viability (Obatoclax + Trametinib; first compound 0.01 µM): 0.598
- relative viability (Obatoclax + Trametinib; first compound 0.03162 µM): 0.55
- relative viability (Obatoclax + Trametinib; first compound 0.3162 µM): 0.631
- relative viability (Obatoclax + Trametinib; first compound 1 µM): 0.557
- relative viability (Obatoclax + Navitoclax; first compound 0.01 µM): 0.855
- relative viability (Obatoclax + Navitoclax; first compound 0.03162 µM): 0.788
- relative viability (Obatoclax + Navitoclax; first compound 0.1 µM): 0.831
- relative viability (Obatoclax + Navitoclax; first compound 0.3162 µM): 0.501
- relative viability (Obatoclax + Navitoclax; first compound 1 µM): 0.545
- relative viability (Obatoclax + Alpelisib; first compound 0.01 µM): 0.626
- relative viability (Obatoclax + Alpelisib; first compound 0.03162 µM): 0.641
- relative viability (Obatoclax + Alpelisib; first compound 0.1 µM): 0.567
- relative viability (Obatoclax + Alpelisib; first compound 0.3162 µM): 0.3
- relative viability (Obatoclax + Alpelisib; first compound 1 µM): 0.2

Cell Line: NCI-H2009
- relative viability ([1]; first compound 0.08 µM): 1.09
- relative viability ([1]; first compound 0.253 µM): 1.19
- relative viability ([1]; first compound 0.8 µM): 1.16
- relative viability ([1]; first compound 2.53 µM): 1.13
- relative viability ([1]; first compound 8 µM): 0.241
- relative viability (Obatoclax + Trametinib; first compound 0.01 µM): 0.32
- relative viability (Obatoclax + Trametinib; first compound 0.03162 µM): 0.313
- relative viability (Obatoclax + Trametinib; first compound 0.1 µM): 0.252
- relative viability (Obatoclax + Trametinib; first compound 0.3162 µM): 0.304
- relative viability (Obatoclax + Trametinib; first compound 1 µM): 0.192
- relative viability (Obatoclax + Navitoclax; first compound 0.01 µM): 1.13
- relative viability (Obatoclax + Navitoclax; first compound 0.03162 µM): 1.23
- relative viability (Obatoclax + Navitoclax; first compound 0.1 µM): 1.15
- relative viability (Obatoclax + Navitoclax; first compound 0.3162 µM): 1.17
- relative viability (Obatoclax + Navitoclax; first compound 1 µM): 0.258
- relative viability (Obatoclax + Alpelisib; first compound 0.01 µM): 1.08
- relative viability (Obatoclax + Alpelisib; first compound 0.03162 µM): 1.16
- relative viability (Obatoclax + Alpelisib; first compound 0.1 µM): 1.19
- relative viability (Obatoclax + Alpelisib; first compound 0.3162 µM): 1.13
- relative viability (Obatoclax + Alpelisib; first compound 1 µM): 0.286
